Measured values as given in patent US20180014536A1, “AGENT FOR IMPROVING PLANT GROWTH AND METHOD FOR PRODUCING PLANT USING SAME” (FUSO CHEMICAL CO., LTD., priority 2015, published 2018).
Values joined by “and” are separate entries in the source; they are usually repeats but may differ in a detail not shown here. Equal entries are not always repeated.

What was measured:
[1] = test system: cucumber; assay: Verification experiment 9: organic acid stress, TTC test; format: in vivo; details: cut leaves immersed in 0.4% acetic acid solution for two hours
[2] = test system: cucumber; assay: Verification experiment 11: ultraviolet ray stress, TTC test; format: in vivo; details: cut leaves irradiated with ultraviolet ray for 24 hours
[3] = test system: racomitrium moss; assay: Verification experiment 18: organic acid stress, Bryophyta, TTC test; format: in vivo; details: samples immersed in 0.4% acetic acid solution for three hours
[4] = test system: leaf lettuce; assay: Verification experiment 13: hydroponics test on leaf lettuce in vinyl greenhouse in summer; format: in vivo
[5] = test system: racomitrium moss; assay: Verification experiment 19: ammonia stress, Bryophyta, TTC test; format: in vivo; details: samples immersed in 1.0% ammonia solution for 48 hours
[6] = test system: cucumber; assay: Verification experiment 8: low temperature stress, TTC test; format: in vivo
[7] = test system: radish sprouts; assay: Verification experiment 4: acid stress (nitric acid); details: leaf spray, then immersed in pH 2.5 acid solution for one minute
Description: By use of radish sprouts, a resistance to acid stress caused by nitric acid was investigated.
Zerumbone was sprayed onto the leaf surfaces of the cotyledons of radish sprouts seedlings three to four days after germination, and the seedlings were then cultivated for several days. Meanwhile, only water was sprayed onto the leaf surfaces of another radish sprouts seedlings, and the seedlings were then cultivated for several days. The radish sprouts seedlings thus cultivated were immersed in a pH 2.5 acid solution for one minute.

[8] = test system: radish sprouts; assay: Verification experiment 5: alkaline stress (potassium hydroxide); details: leaf spray, then immersed in pH 9.0 solution
Description: Next, by use of radish sprouts, a resistance to alkaline stress caused by potassium hydroxide was investigated.
Zerumbone was sprayed onto the leaf surfaces of the cotyledons of radish sprouts seedlings three to four days after germination, and the seedlings were then cultivated for several days. Meanwhile, only water was sprayed onto the leaf surfaces of another radish sprouts seedlings, and the seedlings were then cultivated for several days. The radish sprouts seedlings thus cultivated were immersed in a pH 9.0 acid solution.

[9] = test system: Japanese mustard spinach; assay: Verification experiment 1: high temperature stress, hydroponics (first time); format: in vivo; details: first time
Protocol: In order to confirm that the above substances have an efficacy such as alleviation of the various stresses on a plant or promotion of plant growth, some verification experiments were conducted. In each of the verification experiments, solutions of the above substances were used. A concentration thereof was in a range from 0.01 ppm to 10 ppm, in order to exert a sufficient efficacy on a plant. This concentration was appropriately adjusted for each verification experiment. For comparison, similar verification experiments using sanguinarine were conducted. In such a verification experiment for an identical purpose to the above, a concentration of sanguinarine was set to be identical to those of the above substances. A verification experiment for high temperature stress was conducted by use of Japanese mustard spinach. The experiment was conducted in the following procedures. […] Note that the agent used was zerumbone.

[10] = test system: Japanese mustard spinach; assay: Verification experiment 2: high temperature and low sunshine stress, hydroponics (second time-B)
[11] = test system: autumn fern; assay: Verification experiment 15: organic acid stress, Pteridophyta, TTC test; format: in vivo; details: cut leaves immersed in 0.4% acetic acid solution for three hours
[12] = test system: cucumber; assay: Verification experiment 6: dry stress; format: in vivo
Protocol: By use of cucumber, a resistance to dry stress was investigated. 3 ml of Zerumbone was added to cucumber seedlings immediately after germination. The cucumber seedlings were cultivated for 18 days. Meanwhile, another cucumber seedlings were cultivated for 18 days without Zerumbone added thereto. Throughout the cultivation period, a minimum amount of water was given and watering was conducted a minimum number of times so that the soil surface was always kept dry. […] A weight of each of the seedlings was measured. […] Note that, except for the agent, the cultivation conditions used were identical to those of the case where zerumbone was used.

[13] = test system: cucumber; assay: Verification experiment 10: ammonia stress, TTC test; format: in vivo; details: cut leaves immersed in 1.0% ammonia solution for three hours
[14] = test system: autumn fern; assay: Verification experiment 14: high temperature stress, Pteridophyta, TTC test; format: in vivo; details: cut leaves immersed in tap water of 45° C. for 18 hours
Protocol: As a Pteridophyta, autumn fern was used, which is a representative Pteridophyta often found in, […] bright forest. Verification experiments for various stresses were conducted thereon. The experiments were conducted in the following procedures. […] Meanwhile, the leaf surfaces of the control sample were sprayed only with water. After the spraying onto the leaf surfaces, the autumn fern seedlings were cultivated at 25° C. for one day. The leaves were cut in a suitable size, and were then subjected to various stresses. Then, cell activities of the samples were determined by TTC test. The leaves that were cut in the suitable size were immersed in tap water of 45° C. for 18 hours. On such leaves, TTC test was conducted.

[15] = test system: cucumber; assay: Verification experiment 12: salt stress, TTC test; format: in vivo; details: cut leaves immersed in 1.0% saline water for 24 hours
[16] = test system: radish sprouts; assay: Verification experiment 7: recovering from dry stress; format: in vivo; details: among the four samples; sprayed, dried one night, replanted
Description: Next, radish sprouts seedlings were dried so that the radish sprouts seedlings were severely damaged. Subsequently, adequate water was given to the radish sprouts seedlings. Thus, whether or not the radish sprouts seedlings could be recovered from the damage was verified. First, radish sprouts were immersed in water during night so that germination thereof was promoted. After germination, radish sprouts seedlings planted in vermiculite were impregnated in a nutrient fluid of the Ensi formulation. The radish sprouts seedlings were cultured at 25° C. for five days. A light period during the culture was six hours. Then, zerumbone was sprayed to the radish sprouts seedlings. Meanwhile, water was sprayed to samples used as a control. These radish sprouts seedlings were cultured for one more day. Thereafter, the roots thereof were washed so that the vermiculite was removed therefrom. Then, the roots were wiped with a paper towel. The radish sprouts seedlings were then arranged on a tray, and were dried for one night. The radish sprouts seedlings thus dried were planted in culture soil obtained by blending leaf soil and […] soil in a ratio of 4:6 in a pot.

[17] = test system: racomitrium moss; assay: Verification experiment 17: high temperature stress, Bryophyta, TTC test; format: in vivo; details: samples immersed in tap water of 45° C. for 18 hours
Protocol: As a Bryophyta, racomitrium moss was used, which is a Bryophyta widely used for greening a park, a rooftop, and a garden. Verification experiments for various stresses were conducted thereon. The experiments were conducted in the following procedures. […] Meanwhile, the control sample was sprayed only with water. After the spraying, the racomitrium mosses were cultivated at 25° C. for one day. Then, the samples were subjected to various stresses. Thus, cell activities of the samples were determined by TTC test. […] On such samples, TTC test was conducted.

[18] = test system: Japanese mustard spinach; assay: Verification experiment 2: high temperature stress, hydroponics, plenty of sunlight (second time-A)
[19] = test system: cucumber; assay: Verification experiment 3: high temperature stress, soil culture; format: in vivo; details: leaf spray on cotyledons, 10 days cultivation
Protocol: Next, an experiment was conducted to confirm effectiveness of the agent in soil culture of cucumber. First, seeds of cucumber were sown in culture soil thrown into 15 cm-pots (size-5 pots) such that the seeds have spaces therebetween. The culture soil contains, as fertilizer components, 180 mg/L of nitrogen, 120 mg/L of phosphoric acid, and 220 mg/L of potassium. The soil was adjusted at pH 6.0. Watering was performed every early morning. […] A growth difference was observed therebetween.

[20] = test system: autumn fern; assay: Verification experiment 16: ammonia stress, Pteridophyta, TTC test; format: in vivo; details: cut leaves immersed in 1.0% ammonia solution for 48 hours
[21] = leaf lettuce, summer greenhouse hydroponics
[22] = leaf lettuce, summer greenhouse hydroponics, listed as zerumbone

Compound: C/C1=C\CC(C)(C)/C=C/C(=O)/C(C)=C/CC1 [Zerumbone, zerumbone]
- cells having an activity (TTC test) [1]: approximately half of the cells
- cells having an activity (TTC test) [2]: approximately half of the cells
- TTC test dyeing (cell activity) [3]: dyed slightly
- Growing speed: Harvest timing ([4]; day on which harvest size reached 150 g to 180 g): 30th day after day after germination
- Disease resistance: Powdery mildew [4, 21]: Not occurred
- Disease resistance: Root rot [4, 21]: Not occurred
- Physiological disorder (quality): Heterophyll [4, 21]: Not occurred
- Physiological disorder (quality): Root spread condition [4, 21]: Very good
- Physiological disorder (quality): Taste [4, 21]: No bitterness
- Physiological disorder (quality): Tip burn (dead fringes of leaf) [4, 21]: Not occurred
- Physiological disorder (quality): Unproductive growth [4, 21]: Not occurred
- occurrence of a disease (overall) [4, 21]: occurrence of a disease was not observed
- physiological disorder (overall) [4, 21]: no physiological disorder occurred
- Physiological disorder (quality): Root spread condition [4, 22]: far better than in the sanguinarine test section
- Physiological disorder (quality): Taste [4, 22]: no bitterness
- TTC test dyeing (cell activity) [5]: dyed slightly
- TTC test dyeing (cell activity) ([6]; cut leaves left two days in dark place at 0° C.): dyed deeply
- TTC test dyeing (cell activity) ([6]; cut leaves left two days in dark place at −10° C.): dyed slightly
- TTC test dyeing of leaves (cell activity) ([6]; remaining plants cultivated two days under fluorescent lamp at 4° C.): dyed deeply except for their peripheries
- withering of seedlings [7]: Slight withering was observed in some portions
- resistance to alkaline stress (withering) [8]: gives a plant resistance to both acid and alkali
- Average ([9]; average weight of 10 samples): 1.760 g
- weights greater than those of the control samples ([9]; average weights compared): approximately 15%
- Growth ratio (%) ([9]; control = 100.0): 115.4%
- Weight of 10 samples ([9]; dry weight of 10 seedlings, leaf spray, nine days culture, maximum temperature 30-43 °C, plenty of sunlight): 1.729 g and 1.732 g and 1.787 g and 1.792 g
- growth better than the growth of the control samples ([10]; Table 3 experiment, almost no sunlight): approximately 37%
- Growth ratio (%) ([10]; control = 100.0, second time-B): 136.5%
- Weight of 10 samples ([10]; dry weight of 10 seedlings, nine days, 30-43 °C, almost no sunlight, second time-B): 2.137 g and 2.163 g
- Average ([10]; second time-B): 2.150 g
- TTC test dyeing (cell activity) [11]: dyed slightly
- average weight greater than the control samples ([12]; 18 days dry stress): approximately 13%
- growth compared with control (FIG. 2) ([12]; after 18-day cultivation under dry stress): grew more greatly than the control
- Average ([12]; average seedling weight after 18 days dry stress): 3.00 g
- Weight comparison (%) ([12]; control = 100.0): 113.0%
- cells having an activity (TTC test) [13]: a part of the cells
- TTC test dyeing (cell activity) [14]: dyed slightly
- cells alive (TTC test) [15]: most of the cells
- samples recovered from the dry state [16]: three
- TTC test dyeing (cell activity) [17]: dyed slightly
- weights greater than those of the control samples ([18]; Table 2 experiment): approximately 17%
- Growth ratio (%) ([18]; control = 100.0, second time-A): 116.7%
- Weight of 10 samples ([18]; dry weight of 10 seedlings, nine days, 30-43 °C, plenty of sunlight, second time-A): 2.120 g and 2.176 g and 2.213 g and 2.298 g
- Average ([18]; second time-A): 2.202 g
- growth of cucumber seedlings (FIG. 1) [19]: grown greatly
- TTC test dyeing (cell activity) [20]: dyed slightly
